Experimental data from US11142515B2, “Pyrazolyl-ureas as kinase inhibitors” (RESPIVERT LIMITED, priority 2014, dated 2021).

What was measured:
[1] = biological target: T1, p38 MAPKα isoform (MAPK14) (Homo sapiens, UniProt Q16539); test: p38 MAPKα enzyme inhibition (Z-LYTE FRET); assay type: biochemical; conditions: Table 2B, unit inferred; read-out: p38 MAPKα (Enzyme Profile)
T1 construct: purchased Life Technologies
Summary of the method: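 Activity was measured indirectly as phosphorylation of a MAPKAP-K2-derived FRET peptide. Enzyme (added at 40 ng/mL) was preincubated 2 h at RT with compound (added solutions 40–0.0012 μg/mL).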

p38MAPKγ (MAPK12) = biological target: T2, p38MAPKγ (MAPK12) (Homo sapiens, UniProt P53778); test: p38 MAPKγ enzyme inhibition (Z-LYTE FRET); assay type: biochemical; conditions: Table 2B, unit inferred; read-out: p38 MAPKγ (Enzyme Profile)
T2 construct: purchased Life Technologies
T2 sequence (P53778 1-367): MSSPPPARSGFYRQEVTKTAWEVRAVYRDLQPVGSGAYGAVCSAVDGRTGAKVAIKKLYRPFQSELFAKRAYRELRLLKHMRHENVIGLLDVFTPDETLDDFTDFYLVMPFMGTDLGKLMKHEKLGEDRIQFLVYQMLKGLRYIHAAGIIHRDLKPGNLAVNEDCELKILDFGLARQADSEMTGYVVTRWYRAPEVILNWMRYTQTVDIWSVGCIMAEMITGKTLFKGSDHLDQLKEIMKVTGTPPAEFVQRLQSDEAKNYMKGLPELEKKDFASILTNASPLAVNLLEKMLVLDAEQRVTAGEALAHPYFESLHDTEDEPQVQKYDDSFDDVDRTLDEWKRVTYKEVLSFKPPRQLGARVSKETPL
Summary of the method: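 Enzyme (added at 800 ng/mL) was preincubated 2 h at RT with compound (solutions of 40 to 0.0012 μg/mL), then FRET peptide (8 μM) and ATP (400 μM), both as added, were reacted 1 h at RT. Protease development followed for 1 h; phosphorylation was read as the coumarin/fluorescein emission ratio.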

T1 sequence (Q16539 whole entry, canonical isoform): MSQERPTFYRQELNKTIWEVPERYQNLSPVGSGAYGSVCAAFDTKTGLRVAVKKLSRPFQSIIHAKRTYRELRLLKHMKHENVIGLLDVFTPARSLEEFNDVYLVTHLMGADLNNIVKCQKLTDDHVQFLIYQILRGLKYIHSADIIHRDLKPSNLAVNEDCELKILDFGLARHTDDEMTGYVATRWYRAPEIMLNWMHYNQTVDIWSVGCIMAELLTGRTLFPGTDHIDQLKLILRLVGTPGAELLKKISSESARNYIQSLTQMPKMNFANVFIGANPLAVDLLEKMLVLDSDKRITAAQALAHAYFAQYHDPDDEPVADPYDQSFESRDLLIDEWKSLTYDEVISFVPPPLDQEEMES

Row | SMILES | IC50 [1] [nM] | IC50 (p38MAPKγ (MAPK12)) [nM]
1 | Cc1cc(C)cc(-n2nc(C(C)(C)C)cc2NC(=O)Nc2ccc(OCc3ccnc(Nc4cnc(C(=O)N5CCCC5)cn4)c3)c3ccccc23)c1 [Example 218, 1-(3-(tert-butyl)-1-(3,5-dimethylphenyl)-1H-pyrazol-5-yl)-3-(4-((2-((5-(pyrrolidine-1-carbonyl)pyrazin-2-yl)amino)pyridin-4-yl)methoxy)naphthalen-1-yl)urea] | 28 | > 14100
2 | CC(C)(C)c1cc(NC(=O)Nc2ccc(OCc3ccnc(Nc4cnccn4)c3)c3ccccc23)n(-c2ccc(F)cc2)n1 [Example 187, 1-(3-(tert-butyl)-1-(4-fluorophenyl)-1H-pyrazol-5-yl)-3-(4-((2-(pyrazin-2-ylamino)pyridin-4-yl)methoxy)naphthalen-1-yl) urea] | 16 | 180
3 | Cc1ccc(-n2nc(C(C)(C)C)cc2NC(=O)Nc2ccc(OCc3ccnc(Nc4cnccn4)c3)c3ccccc23)cn1 [Example 198, 1-(3-(tert-butyl)-1-(6-methylpyridin-3-yl)-1H-pyrazol-5-yl)-3-(4-((2-(pyrazin-2-ylamino)pyridin-4-yl)methoxy)naphthalen-1-yl)urea] | 10 | 111
4 | CCc1cncc(Nc2cc(COc3ccc(NC(=O)Nc4cc(C(C)(C)C)nn4-c4ccc(C)c(F)c4)c4ccccc34)ccn2)n1 [Example 167, 1-(3-(tert-butyl)-1-(3-fluoro-4-methylphenyl)-1H-pyrazol-5-yl)-3-(4-((2-((6-ethylpyrazin-2-yl)amino)pyridin-4-yl)methoxy)naphthalen-1-yl) urea] | 25 | 259
5 | COc1ccc(-n2nc(C(C)(C)C)cc2NC(=O)Nc2ccc(OCc3ccnc(Nc4cnc(CO)cn4)c3)c3ccccc23)cn1 [Example 177, 1-(3-(tert-butyl)-1-(6-methoxypyridin-3-yl)-1H-pyrazol-5-yl)-3-(4-((2-((5-(hydroxymethyl)pyrazin-2-yl)amino)pyridin-4-yl)methoxy)naphthalen-1-yl) urea] | 5.2 | 81
6 | CN(C)c1cncc(Nc2cc(COc3ccc(NC(=O)Nc4cc(C(C)(C)C)nn4-c4ccc(CO)cc4)c4ccccc34)ccn2)n1 [Example 114, 1-(3-(tert-butyl)-1-(4-(hydroxymethyl)phenyl)-1H-pyrazol-5-yl)-3-(4-((2-((6-(dimethylamino)pyrazin-2-yl)amino)pyridin-4-yl)methoxy)naphthaien-1-yl)urea] | 2 | 26
7 | Cc1ccc(-n2nc(C(C)(C)C)cc2NC(=O)Nc2ccc(OCc3ccnc(Nc4cnc(C(=O)N5CCC(O)CC5)cn4)c3)c3ccccc23)cc1 [Example 127, 1-(3-(tert-butyl)-1-(p-tolyl)-1H-pyrazol-5-yl)-3-(4-((2-((5-(4-hydroxypiperidine-1-carbonyl)pyrazin-2-yl)amino)pyridin-4-yl)methoxy)naphthalen-1-yl) urea] | 6.8 | 93
8 | COc1ccc(-n2nc(C(C)(C)C)cc2NC(=O)Nc2ccc(OCc3ccnc(Nc4cnc(CO)cn4)c3)c3ccccc23)cc1C [Example 133, 1-(3-(tert-butyl)-1-(4-methoxy-3-methylphenyl)-1H-pyrazol-5-yl)-3-(4-((2-((5-(hydroxymethyl)pyrazin-2-yl)amino)pyridin-4-yl)methoxy)naphthalen-1-yl) urea] | 7.3 | 10200
9 | Cc1ccc(-n2nc(C(C)(C)C)cc2NC(=O)Nc2ccc(OCc3ccnc(Nc4cncc(C5CCOCC5)n4)c3)c3ccccc23)cc1 [Example 161, 1-(3-(tert-butyl)-1-(p-tolyl)-1H-pyrazol-5-yl)-3-(4-((2-((6-(tetrahydro-2H-pyran-4-yl)pyrazin-2-yl)amino)pyridin-4-yl)methoxy)naphthalen-1-yl)urea] | 10 | 74
10 | CCc1cncc(Nc2cc(COc3ccc(NC(=O)Nc4cc(C(C)(C)C)nn4-c4cccc(Cl)c4)c4ccccc34)ccn2)n1 [Example 175, 1-(3-(tert-butyl)-1-(3-chlorophenyl)-1H-pyrazol-5-yl)-3-(4-((2-((6-ethylpyrazin-2-yl)amino)pyridin-4-yl)methoxy)naphthalen-1-yl)urea] | 38 | > 15500
11 | Cc1ccc(-n2nc(C(C)(C)C)cc2NC(=O)Nc2ccc(OCc3ccnc(Nc4cnc(C(=O)NCCC5CCN(C)CC5)cn4)c3)c3ccccc23)cc1 [Example 266, 5-((4-(((4-(3-(3-(tert-butyl)-1-(p-tolyl)-1H-pyrazol-5-yl)ureido)naphthalen-1-yl)oxy)methyl)pyridin-2-yl)amino)-N-(2-(1-methyl-piperidin-4-yl)ethyl) pyrazine-2-carboxamide] | < 0.39 | 51
12 | Cc1ccc(-n2nc(C(C)(C)C)cc2NC(=O)Nc2ccc(OCc3ccnc(Nc4cnc(C(=O)N5CCC5)cn4)c3)c3ccccc23)cc1 [Example 128, 1-(4-((2-((5-(azetidine-1-carbonyl)pyrazin-2-yl)amino)pyridin-4-yl)methoxy)naphthalen-1-yl)-3-(3-(tert-butyl)-1-(p-tolyl)-1H-pyrazol-5-yl)urea] | 55 | > 14700
13 | CCc1cncc(Nc2cc(COc3ccc(NC(=O)Nc4cc(C(C)(C)C)nn4-c4cc(F)cc(OC)c4)c4ccccc34)ccn2)n1 [Example 211, 1-(3-(tert-butyl)-1-(3-fluoro-5-methoxyphenyl)-1H-pyrazol-5-yl)-3-(4-((2-((6-ethylpyrazin-2-yl)amino)pyridin-4-yl)methoxy)naphthalen-1-yl)urea] | 60 | 582
14 | COc1ccc(-n2nc(C(C)(C)C)cc2NC(=O)Nc2ccc(OCc3ccnc(Nc4cnc(C(=O)N5CCCC5)cn4)c3)c3ccccc23)cn1 [Example 219, 1-(3-(tert-butyl)-1-(6-methoxypyridin-3-yl)-1H-pyrazol-5-yl)-3-(4-((2-((5-(pyrrolidine-1-carbonyl)pyrazin-2-yl)amino)pyridin-4-yl)methoxy)naphthalen-1-yl)urea] | 18 | > 14000
15 | Cc1ccc(-n2nc(C(C)(C)C)cc2NC(=O)Nc2ccc(OCc3ccnc(Nc4cnc(C(=O)N5CC[C@@H](F)C5)cn4)c3)c3ccccc23)cc1 [Example 245, (R)-1-(3-(tert-butyl)-1-(p-tolyl)-1H-pyrazol-5-yl)-3-(4-((2-((5-(3-fluoropyrrolidine-1-carbonyl)pyrazin-2-yl)amino)pyridin-4-yl)methoxy)naphthalen-1-yl)urea] | 18 | 1700
16 | Cc1ccc(-n2nc(C(C)(C)C)cc2NC(=O)Nc2ccc(OCc3ccnc(Nc4cnc(C(=O)N5CCN(C)CC5)cn4)c3)c3ccccc23)cc1 [Example 136, 1-(3-(tert-butyl)-1-(p-tolyl)-1H-pyrazol-5-yl)-3-(4-((2-((5-(4-methylpiperazine-1-carbonyl)pyrazin-2-yl)amino)pyridin-4-yl)methoxy)naphthalen-1-yl)urea] | < 0.41 | 41
17 | CCc1cncc(Nc2cc(COc3ccc(NC(=O)Nc4cc(C(C)(C)C)nn4-c4cccc(F)c4)c4ccccc34)ccn2)n1 [Example 62] | 24 | 560
18 | CCc1cncc(Nc2cc(COc3ccc(NC(=O)Nc4cc(C(C)(C)C)nn4-c4ccc(COC)cc4)c4ccccc34)ccn2)n1 [Example 210, 1-(3-(tert-butyl)-1-(4-(methoxymethyl)phenyl)-1H-pyrazol-5-yl)-3-(4-((2-((6-ethylpyrazin-2-yl)amino)pyridin-4-yl)methoxy)naphthalen-1-yl)urea] | 28 | 509
19 | CO[C@H]1CCCN(C(=O)c2cnc(Nc3cc(COc4ccc(NC(=O)Nc5cc(C(C)(C)C)nn5-c5ccc(C)cc5)c5ccccc45)ccn3)cn2)C1 [Example 238, (S)-1-(3-(tert-butyl)-1-(p-tolyl)-1H-pyrazol-5-yl)-3-(4-((2-((5-(3-methoxypiperidine-1-carbonyl)pyrazin-2-yl)amino)pyridin-4-yl)methoxy)naphthalen-1-yl)urea] | 19 | 151
20 | Cc1ccc(-n2nc(C(C)(C)C)cc2NC(=O)Nc2ccc(OCc3ccnc(Nc4cnc(C(=O)N5CC[C@H](F)C5)cn4)c3)c3ccccc23)cc1 [Example 242, (S)-1-(3-(tert-butyl)-1-(p-tolyl)-1H-pyrazol-5-yl)-3-(4-((2-((5-(3-fluoropyrrolidine-1-carbonyl)pyrazin-2-yl)amino)pyridin-4-yl)methoxy)naphthalen-1-yl)urea] | 19 | > 14000
21 | COCCc1cccc(-n2nc(C(C)(C)C)cc2NC(=O)Nc2ccc(OCc3ccnc(Nc4cnccn4)c3)c3ccccc23)c1 [Example 257, 1-(3-(tert-butyl)-1-(3-(2-methoxyethyl)phenyl)-1H-pyrazol-5-yl)-3-(4-((2-(pyrazin-2-ylamino)pyridin-4-yl)methoxy)naphthalen-1-yl)urea] | 12 | 68
22 | COCc1cnc(Nc2cc(COc3ccc(NC(=O)Nc4cc(C(C)(C)C)nn4-c4ccc(C)cc4)c4ccccc34)ccn2)cn1 [Example 190, 1-(3-(tert-butyl)-1-(p-tolyl)-1H-pyrazol-5-yl)-3-(4-((2-((5-(methoxymethyl)pyrazin-2-yl)amino)pyridin-4-yl)methoxy)naphthalen-1-yl) urea] | 23 | 232
